Read-outs that look alike come from different tables or passages of the source.
How the values were obtained:
Format in all cases: cell-based
[1] = system: HTT mRNA; experiment: Splicing RT-qPCR assay (THP), Table 2A
[2] = system: SH-SY5Y (human neuroblastoma) cells; experiment: Cell viability, Cell Titer Glo 2.0 assay; conditions: read-out: Viability SHSY5Y.3 GI50
Procedure, shortened: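 SH-SY5Y neuroblastoma cells are exposed to test compounds for 72 hours at 37 °C and 5% CO2, with final DMSO held at 0.1%. Cell viability is then measured with the CellTiter-Glo 2.0 assay.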

[3] = system: MYB mRNA; experiment: Splicing RT-qPCR assay (THP), Table 2A
[4] = system: MYB mRNA; experiment: Gene panel canonical junction qPCR assay, decrease in CJ mRNA, Table 3
Procedure, shortened: (§1)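 A673 cells were plated, left to adhere for 24 h, then dosed; K562 cells were plated in 96- or 384-well format and dosed directly. Both were incubated 24 h at 37 °C with an 11-point 3-fold series (top 10 uM final). Canonical junction mRNA was then read by cDNA synthesis and qPCR.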

[5] = system: HTT mRNA; experiment: as above
Procedure, shortened: as §1

[6] = Table 2A, THP, HTT alternative junction (AJ) mRNA, read-out: HTT AJ (AC50, increase in alternative junction mRNA)
[7] = Table 2A, THP, HTT canonical junction (CJ) mRNA, read-out: HTT CJ (IC50, decrease in canonical junction mRNA)
[8] = Table 2A, THP, MYB alternative junction (AJ) mRNA, read-out: MYB AJ (AC50, increase in alternative junction mRNA)
[9] = Table 2A, THP, MYB canonical junction (CJ) mRNA, read-out: MYB CJ (IC50, decrease in canonical junction mRNA)
[10] = decrease in CJ mRNA levels, canonical junction qPCR, gene panel
[11] = Table 2A (THP), AJ mRNA increase, read-out: HTT AJ (increase in alternative junction mRNA, AC50)
[12] = Table 2A (THP), CJ mRNA decrease, read-out: HTT CJ (decrease in canonical junction mRNA, IC50)
[13] = Table 2A (THP), AJ mRNA increase, read-out: MYB AJ (increase in alternative junction mRNA, AC50)
[14] = Table 2A (THP), CJ mRNA decrease, read-out: MYB CJ (decrease in canonical junction mRNA, IC50)
[15] = decrease in canonical junction (CJ) mRNA, gene panel qPCR, Table 3

Compound | IC50 [1, 7] [nM] | GI50 [2] [nM] | IC50 [3, 9] [nM] | IC50 [4, 10] [nM] | IC50 [5, 10] [nM] | IC50 [1, 12] [nM] | IC50 [3, 14] [nM] | IC50 [4, 15] [nM] | IC50 [5, 15] [nM] | AC50 [1, 6] [nM] | AC50 [3, 8] [nM] | AC50 [1, 11] [nM] | AC50 [3, 13] [nM]
Cc1cn2cc(NC(=O)c3ccc(N4CCC(NC5CC5)CC4)c4cn(C)nc34)nc2c(Cl)n1 [Compound 479, N-(8-chloro-6-methyl-imidazo[1,2-a]-pyrazin-2-yl)-4-[4-(cyclopropylamino)-1-piperidyl]-2-methyl-indazole-7-carboxamide] |  | 1000 to 10000 |  |  |  | > 10000 | 100 to 1000 | 100 to 1000 | > 10000 |  |  | > 10000 | 100 to 1000
COc1c(NC(=O)c2ccc(N3CCC(NC4CC4)CC3)c3cn(C)nc23)cn2cc(C)nc(C)c12 [Compound 457, 4-[4-(cyclopropylamino)-1-piperidyl]-N-(8-methoxy-1,3-dimethyl-pyrrolo[1,2-a]pyrazin-7-yl)-2-methyl-indazole-7-carboxamide] |  | 1000 to 10000 |  |  |  | 1000 to 10000 | 1000 to 10000 | 1000 to 10000 | 1000 to 10000 |  |  | 1000 to 10000 | 1000 to 10000
Cc1cn2c(N3CCC(NC4CC4)CC3)ccc(C(=O)Nc3cc(CNS(C)(=O)=O)c4nn(C)cc4c3)c2n1 [Compound 839] | 1000 to 10000 | 1000 to 10000 | 100 to 1000 | 100 to 1000 | 1000 to 10000 |  |  |  |  | 1000 to 10000 | 100 to 1000 |  | 
Cc1cn2cc(NC(=O)c3c(F)cc(N4CCC(N)CC4)c4cn(C)nc34)nc2c(C)n1 [Compound 347, 4-(4-aminopiperidin-1-yl)-N-(6,8-dimethylimidazo[1,2-a]pyrazin-2-yl)-6-fluoro-2-methyl-2H-indazole-7-carboxamide 2,2,2-trifluoroacetate] |  | 1000 to 10000 |  |  |  | 1000 to 10000 | < 100 | < 100 | 1000 to 10000 |  |  | 1000 to 10000 | < 100
CCNC1CCN(c2ccc(C(=O)Nc3cc(OC)c4nc(C)sc4c3)c3nn(C)cc23)CC1 [Compound 385, 4-[4-(ethylamino)-1-piperidyl]-N-(4-methoxy-2-methyl-1,3-benzothiazol-6-yl)-2-methyl-indazole-7-carboxamide 2,2,2-trifluoroacetate] |  | 1000 to 10000 |  |  |  | > 10000 | > 10000 | > 10000 | > 10000 |  |  | 1000 to 10000 | 100 to 1000
CCNC1CCN(c2ccc(C(=O)Nc3nc4c(C)nc(C)cc4[nH]3)c3nn(C)cc23)CC1 [Compound 572, N-(4,6-dimethyl-1H-imidazo[4,5-c]-pyridin-2-yl)-4-[4-(ethylamino)-1-piperidyl]-2-methyl-indazole-7-carboxamide] |  | 1000 to 10000 |  |  |  | 1000 to 10000 | 1000 to 10000 | 1000 to 10000 | 1000 to 10000 |  |  | > 10000 | 1000 to 10000

More lines, main results first:

IC50 [1, 7] [nM] | GI50 [2] [nM] | IC50 [3, 9] [nM] | IC50 [4, 10] [nM] | IC50 [5, 10] [nM] | IC50 [1, 12] [nM] | IC50 [3, 14] [nM] | IC50 [4, 15] [nM] | IC50 [5, 15] [nM] | Compound | AC50 [1, 6] [nM] | AC50 [3, 8] [nM] | AC50 [1, 11] [nM] | AC50 [3, 13] [nM]
100 to 1000 | 100 to 1000 | 100 to 1000 | 100 to 1000 | 100 to 1000 |  |  |  |  | COc1nc2c(C(=O)Nc3cc(CO)c4nn(C)cc4c3)ccc(N3CCC(NC4CC4)CC3)c2s1 [Compound 862] | 100 to 1000 | 100 to 1000 |  | 
100 to 1000 | 100 to 1000 | < 100 | < 100 | 100 to 1000 |  |  |  |  | CN[C@@H]1CCN(c2ccc(C(=O)Nc3cc(F)c4nn(C)cc4c3)c3nc(OC)sc23)C1 [Compound 747, N-(7-fluoro-2-methyl-indazol-5-yl)-2-methoxy-7-[(3R)-3-(methylamino)pyrrolidin-1-yl]-1,3-benzothiazole-4-carboxamide] | 100 to 1000 | < 100 |  | 
 | 100 to 1000 |  |  |  | 100 to 1000 | 100 to 1000 | 100 to 1000 | 100 to 1000 | COc1cc2nn(C)cc2cc1NC(=O)c1ccc(N2CCC(NC3CC3)CC2)c2c(C)n(C)nc12 [Compound 485, 4-[4-(cyclopropylamino)-1-piperidyl]-N-(6-methoxy-2-methyl-indazol-5-yl)-2,3-dimethyl-indazole-7-carboxamide] |  |  | 100 to 1000 | 100 to 1000

— patent US20260285853A1, “COMPOUNDS AND METHODS FOR MODULATING SPLICING” (REMIX THERAPEUTICS INC., priority 2023, published 2026)
